From patent US20210228523A1, “MODULATORS OF SESTRIN-GATOR2 INTERACTION AND USES THEREOF” (Navitor Pharmaceuticals, Inc., priority 2017, published 2021)

Target: T1, GATOR2/Sestrin2 complexes (Homo sapiens, UniProt P58004)
T1 construct: endogenous in cells; host or cells: HEK293T cells stably expressing FLAG-WDR24 (lentiviral, pLJM60)
T1 sequence (P58004 1-480): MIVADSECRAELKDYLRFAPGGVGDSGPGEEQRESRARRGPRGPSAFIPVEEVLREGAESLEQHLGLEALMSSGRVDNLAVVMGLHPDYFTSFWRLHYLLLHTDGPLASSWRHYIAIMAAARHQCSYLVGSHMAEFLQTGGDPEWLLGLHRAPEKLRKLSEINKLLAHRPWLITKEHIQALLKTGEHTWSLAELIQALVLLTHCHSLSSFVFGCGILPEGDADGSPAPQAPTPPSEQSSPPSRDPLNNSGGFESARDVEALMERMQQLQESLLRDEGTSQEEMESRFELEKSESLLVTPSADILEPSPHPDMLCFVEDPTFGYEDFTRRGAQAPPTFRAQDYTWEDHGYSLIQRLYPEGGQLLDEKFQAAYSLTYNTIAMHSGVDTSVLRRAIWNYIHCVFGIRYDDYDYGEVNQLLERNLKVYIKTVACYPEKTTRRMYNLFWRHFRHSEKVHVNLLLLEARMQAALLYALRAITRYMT
Experiment: In vitro PPI assay (Method 1; Western blot assay): Sestrin2 bound to GATOR2 after compound addition to immunoprecipitated FLAG-WDR24 complex
Assay type: binding
Settings: 25 μM, % activity relative to leucine (25 μM = 100%)
From the text: This screening assay measured test compound activity in vitro on GATOR2/Sestrin2 complexes purified via immunoprecipitation of stably expressed FLAG-WDR24 from HEK293T cells. HEK293T cells (293 Ts) were engineered to stably express N-terminally tagged FLAG-WDR24 via transduction by lentivirus. Lentiviruses were produced by co-transfection of the lentiviral transfer vector pLJM60 with the […] into HEK-293T cells using the XTremeGene 9 transfection reagent (Roche Diagnostics). The media was changed 24 hours post-transfection to Dulbecco's Modified Eagle's media (DMEM) supplemented with 30% Inactivated Fetal Serum. The virus-containing supernatants were collected 48 and 72 hours after transfection and passed through a 0.45 μm filter to eliminate cells. Target cells in 6-well tissue culture plates were infected in media containing 8 μg/mL polybrene and spin infections were performed by centrifugation at 2,200 rpm for 1 hour. Twenty-four hours after infection, the virus was removed and the cells selected with the appropriate antibiotic. Cells were then grown in DMEM supplemented with 10% fetal bovine serum and antibiotics.
Seventy-two hours later, cells were placed in standard RPMI media formulated with no amino acids and supplemented with 5 mM Glucose (−AA RPMI, US Biological Life Sciences) for 1 hour then subsequently lysed in lysis buffer (40 mM HEPES, 1% Triton, 10 mM sodium β-glycerophosphate, 10 mM sodium pyrophosphate, 2.5 mM MgCl2 and protease inhibitors). To isolate the FLAG-WDR24/endogenous-Sestrin2 complex, crude lysate (equivalent to 2-4 mg of total protein) in a volume of 1 ml was subjected to immunoprecipitation with 30 μl of anti-flag resin (SIGMA) for 2 hours at 4° C., washed twice in cold lysis buffer plus 0.5M NaCl and resuspended in 1 ml of cold cytosolic buffer (40 mM HEPES pH 7.4, 140 mM KCl, 10 mM NaCl, 2.5 mM MgCl2, 0.1% TritonX-100). […] After the incubation period, samples were centrifuged to pellet the FLAG-WDR24/endogenous-Sestrin2 complex bound to the anti-flag resin, the supernatant was completely removed and resin was resuspended in SDS-PAGE sample buffer and boiled for 5 minutes. Samples were then processed by SDS-PAGE and western blots were performed with anti-FLAG (SIGMA) and anti-Sestrin2 (Cell Signaling Technology) antibodies as described in L. Chantranupong, et al., Cell Reports 9:1-8 (2014).
The resulting western blots were scanned and band intensities corresponding to Sestrin2 and FLAG-WDR24 were quantified using the LI-COR® imaging platform. To determine the amount of Sestrin2 bound to GATOR2 for each condition, the band intensity for Sestrin2 was normalized to the band intensity of FLAG-WDR24. […]
72 hours later, cells were placed in standard RPMI media formulated with no amino acids and supplemented with 5 mM Glucose (−AA RPMI, USBiological Life Sciences) for 1 hour then subsequently lysed in lysis buffer (40 mM HEPES, 1% Triton, 10 mM Sodium Beta-Glycerophosphate, 10 mM Sodium Pyrophosphate, 2.5 mM MgCl2 and protease inhibitors). The Flag-WDR24/endogenous-Sestrin2 complex was isolated as follows: crude lysate (equivalent to 2-4 mg of total protein) in a volume of 1 ml was subjected to immunoprecipitation (IP) with 30 μl of anti-flag resin (SIGMA) for 2 hours at 4° C., washed twice in cold lysis buffer plus 0.5M NaCl and resuspended in 1 ml of cold cytosolic buffer (40 mM HEPES pH 7.4, 140 mM KCl, 10 mM NaCl, 2.5 mM MgCl2, 0.1% TritonX-100). Compounds were then added to each sample at a given concentration of 25 μM and incubated with rotation at 4° C. for 30 minutes. After the incubation period, samples were centrifuged to pellet the Flag-WDR24/endogenous-Sestrin2 complex bound to the anti-flag resin, the supernatant was completely removed and resin was resuspended in sodium dodecyl sulfate-polyacrylamide gel electrophoresis (SDS-PAGE) sample buffer and boiled for 5 minutes. […]

Row | SMILES | Activity of Leucine: % Activity
1 | CC(C)C[C@H](N)B1OC(C)(C)C(C)(C)O1 [Compound I-38] | C (a % activity relative to leucine of between -40 and 40%)
2 | COCCC(N)C(=O)O (stereo not drawn) [Compound I-39] | C (a % activity relative to leucine of between -40 and 40%)
3 | CC(C)C[C@H](N)S(=O)(=O)O [Compound I-157] | B to C
4 | CC(C)C[C@H](N)C(=O)Nc1ccccc1 [Compound I-20, (S)-2-amino-4-methyl-N-phenylpentanamide] | C (a % activity relative to leucine of between -40 and 40%)
5 | CC(C)C(F)(F)[C@H](N)C(=O)O [Compound I-46, (R)-2-amino-3,3-difluoro-4-methylpentanoic Acid] | C (a % activity relative to leucine of between -40 and 40%)
6 | N[C@H](CCCC(F)(F)F)C(=O)O [Compound I-9, (R)-2-amino-6,6,6-trifluorohexanoic Acid] | C (a % activity relative to leucine of between -40 and 40%)
7 | CC(C)C[C@H](NS(=O)(=O)Cc1ccccc1)C(=O)O [Compound I-18, (S)-4-methyl-2-(phenylmethylsulfonamido)pentanoic Acid] | C (a % activity relative to leucine of between -40 and 40%)
8 | CC(C)CC(N)S(=O)(=O)O (stereo not drawn) [Compound I-33] | C (a % activity relative to leucine of between -40 and 40%)
9 | CSCC[C@H](N)C(=O)O [Compound I-30] | A (a % activity relative to leucine of ≥40%)
10 | CC(C)C[C@@H](C(=O)O)N(C)C [Compound I-1, (S)-2-(dimethylamino)-4-methylpentanoic Acid] | B (a % activity relative to leucine of ≤−40%)
11 | CC(C)C[C@H](NS(=O)(=O)c1ccccc1)C(=O)O [Compound I-25, (S)-4-methyl-2-(phenylsulfonamido)pentanoic Acid] | C (a % activity relative to leucine of between -40 and 40%)
12 | CC(C)C[C@H](N)C(=O)N1CCCC1 [Compound I-154] | C (a % activity relative to leucine of between -40 and 40%)
13 | CC(C)[C@H](N)C(=O)O [Compound I-28] | C (a % activity relative to leucine of between -40 and 40%)
14 | N[C@H](CC(C(F)(F)F)C(F)(F)F)C(=O)O [Compound I-163] | A (a % activity relative to leucine of ≥40%)
15 | CC(=O)N[C@@H](CC(C)C)C(=O)O [Compound I-36, (S)-2-acetamido-4-methylpentanoic Acid] | B (a % activity relative to leucine of ≤−40%)
16 | CC(C)C[C@H](N)C(=O)O [Compound I-44] | A (a % activity relative to leucine of ≥40%)
17 | CC(C)C[C@H](N)C(=O)N1CCCC[C@H]1C [Compound I-161] | C (a % activity relative to leucine of between -40 and 40%)
18 | CC(C)C[C@H](N)C(=O)N(CC(C)C)CC(C)C [Compound I-155] | C (a % activity relative to leucine of between -40 and 40%)
19 | CC(C)C[C@H](NCc1ccccc1)C(=O)O [Compound I-11, (S)-2-(benzylamino)-4-methylpentanoic Acid] | C (a % activity relative to leucine of between -40 and 40%)
20 | CC(C)C[C@H](N)C(=O)N(C)C [Compound I-149] | C (a % activity relative to leucine of between -40 and 40%)
21 | CC(C)C[C@H](N)C(=O)NS(=O)(=O)c1ccccc1 [Compound I-148] | A (a % activity relative to leucine of ≥40%)
22 | CN[C@@H](CC(C)C)C(=O)O.Cl [Compound I-24] | A (a % activity relative to leucine of ≥40%)
23 | N[C@H](CCC(F)(F)F)C(=O)O [Compound I-7, (R)-2-amino-5,5,5-trifluoropentanoic Acid] | B (a % activity relative to leucine of ≤−40%)
24 | N[C@@H](CC(F)(F)F)C(=O)O [Compound I-4, (S)-2-amino-4,4,4-trifluorobutanoic Acid] | C (a % activity relative to leucine of between -40 and 40%)
